“Also recorded” adds a separate entry of the source.
What was measured:
[1] = test system: AAV1 capsid proteins; assay: ELISA for circulating antibodies to AAV1 capsid in serum of Pompe subjects; conditions: Pompe patient, rituximab with sirolimus prior to rAAV1-GAA
Protocol: Serum samples were assayed by ELISA for circulating antibodies to the AAV1 capsid proteins.
Serum samples were assayed by enzyme linked immunosorbent assay (ELISA) for circulating antibodies to the intact AAV1 capsid and hGAA protein 21, 46. Anti-AAV1 and anti-hGAA ASR and ELISPOT assay were performed as previously described on isolated peripheral blood mononuclear cells (ref. 47).

[2] = test system: B-cells (CD20), CD3 positive lymphocytes; assay: Enumeration of B- and T-lymphocyte subpopulations in peripheral blood by flow cytometry; assay type: in vivo, human; conditions: 375 mg/m^2 weekly for 3 weeks, then at 12 weeks intervals
Protocol: Enumeration of B- and T-lymphocyte subpopulations in peripheral blood was done by flow cytometry using monoclonal Abs to CD19 or CD20 for B cells and monoclonal Abs to CD3, CD4, and CD8 for T cells. Sirolimus trough levels, IgG, CD3, CD4, CD8, CD19, CD20, N-terminal pro-brain natriuretic peptide, creatine kinase, creatine kinase-MB, C-reactive protein, platelets, alkaline phosphatase, gamma-glutamyl transferase, aspartate aminotransferase, and alanine aminotransferase were measured at regular intervals.

[3] = test system: anti-rAAV NAbs / GAA antibody responses; conditions: cited from earlier work

## Rituximab: monoclonal antibody that induces B-cell depletion by binding the CD20 protein found on the surface of B-cells
[1]
  immune response to rAAV vector (capsid and transgene) after B-cell depletion prior to vector exposure: immune non-responsiveness; also recorded: nonresponsiveness to both capsid and transgene
[2]
  CD20 counts (B-cells): complete depletion
[3]; CRIM-negative infants with early-onset Pompe disease, Rituximab plus Sirolimus before initiation of ERT (Elder et al.)
  GAA antibody responses to ERT: able to block GAA antibody responses
[3]; humans receiving rituximab for rheumatoid arthritis (ref. 33) and non-human primates
  existing anti-rAAV NAbs: successful in reduction
